Measurements from US20240246964A1 (Arbutus Biopharma Corporation, priority 2021, published 2024).
pEC50, pIC50: −log10 of the molar value.

Assays:
[1] = molecular target: PD-L1 His protein / PD-1 Fc protein (Homo sapiens (Human), UniProt Q9NZQ7); assay: HTRF Assay (PD-1/PD-L1 interaction); type: binding; conditions: PD-L1 His 6 nM, PD-1 Fc 6 nM
human PD-L1 = human PD-L1 (Homo sapiens (Human), UniProt Q9NZQ7); assay: T cell activation luciferase reporter cell culture system (T Cell Activation Assay); type: cell-based; conditions: luciferase reporter assay; PD-L1 aAPC/CHO-K1 cells with PD-1 effector Jurkat T cells
Sequence of human PD-L1 (Q9NZQ7 19-290): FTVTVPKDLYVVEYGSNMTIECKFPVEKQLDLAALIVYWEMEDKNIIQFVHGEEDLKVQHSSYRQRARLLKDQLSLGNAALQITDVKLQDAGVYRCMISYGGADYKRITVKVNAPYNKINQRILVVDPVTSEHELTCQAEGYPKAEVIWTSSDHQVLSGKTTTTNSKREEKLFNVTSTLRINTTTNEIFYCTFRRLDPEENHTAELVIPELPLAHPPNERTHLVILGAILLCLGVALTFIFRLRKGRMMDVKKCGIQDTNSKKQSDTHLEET

HBV-specific T cells = assay: HBV-specific T cell reinvigoration in vitro assay using PBMCs from chronic hepatitis B patients; type: cell-based, human; conditions: relative to HBV-specific peptide treatment alone, 24 hours; for Fold Change in IFN-γ Expression of HBV-specific T Cells, Mean ± SD: Mean ± SD of nine chronic hepatitis B donors
Method: In one aspect, this assay measures the ability of a PD-L1 inhibitor to increase HBV specific T cell activity in an infected subject, as measured by the increase in interferon-gamma expression by those T cells.
The ability of PD-L1 inhibitor compounds to reinvigorate HBV-specific T cell activity was assessed as described. PBMCs from nine chronic hepatitis B patients were obtained by Ficoll separation of fresh whole blood and frozen in liquid nitrogen as described previously (Park et al., Nature Communications, 2021; 12:1222). Frozen PBMCs were thawed and plated into 12-well plates at 2×10^6 cells/ml. PBMCs were rested overnight at 37° C. before they were stimulated with HBV-specific peptide pools and allowed to proliferate for 5 days. Expanded PBMCs were then restimulated with HBV-specific peptide pools alone or stimulated with HBV-specific peptide pools and incubated with compounds 89, 90, and 139, a negative control, or anti-PD-L1 antibody as reference. Supernatant was obtained after 24 hours and assayed for IFN-γ using the Luminex platform. Fold change increase in IFN-γ expression mediated by compound treatment relative to HBV-specific peptide treatment alone was determined (Table 3).

[2] = test system: MC38 tumors expressing human PD-L1; assay: In vivo anti-tumor efficacy in humanized PD-L1 and PD-1 expressing MC38 tumor mouse model
Method: In one aspect, this assay measures the ability of a PD-L1 inhibitor to reduce the size of MC38 (a murine colon adenocarcinoma cell line) tumors in mice, as an indication of the PD-L1 inhibitor's ability to help treat, ameliorate, and/or prevent cancer in the subject.
In vivo anti-tumor efficacy of compounds was evaluated in mice expressing humanized PD-1 and PD-L1, in which the extracellular domains of murine PD-1 and PD-L1 were genetically replaced with the human extracellular domain counterparts (Huang et al., Scientific Reports, 2017; 7:42687). Humanized PD-1/PD-L1 (hPD-1/hPD-L1) mice were subcutaneously implanted with the colorectal cancer cell line MC38 expressing human PD-L1 and compound treatment initiated when tumor volumes reached approximately 100 mm^3. Compounds were administered via oral gavage once daily at: 30 mg/kg between study days 1 and 7; or 10 mg/kg for 28 days. The anti-PD-L1 monoclonal antibody atezolizumab was included as a positive reference control and administered via intraperitoneal injection at 0.3 mg/kg thrice weekly between study days 1 and 15. Tumor lengths and widths were measured by digital caliper and tumor volumes were calculated by the formula: […].

Sequence of PD-L1 His protein / PD-1 Fc protein (Q9NZQ7 19-238): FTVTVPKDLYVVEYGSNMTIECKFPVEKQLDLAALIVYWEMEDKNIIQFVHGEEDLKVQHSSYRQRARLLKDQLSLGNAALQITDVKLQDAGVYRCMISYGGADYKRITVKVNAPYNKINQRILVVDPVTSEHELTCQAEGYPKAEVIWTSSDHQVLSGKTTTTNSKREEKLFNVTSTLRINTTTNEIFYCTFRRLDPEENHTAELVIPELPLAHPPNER

Molecule: COc1cc(-c2nccc(-c3cccc(-c4ccc(CN5CC6(CNC(=O)C6)C5)c(OC)n4)c3Cl)c2Cl)ccc1CN1CC2(CNC(=O)C2)C1 [Compound 89, 2-(4-(3-chloro-4-(2-chloro-3-(6-methoxy-5-((7-oxo-2,6-diazaspiro[3.4]octan-2-yl)methyl)pyridin-2-yl)phenyl)pyridin-2-yl)-2-methoxybenzyl)-2,6-diazaspiro[3.4]octan-7-one]
- pIC50 [1]: 9.30
- pEC50 (human PD-L1): 7.78
- Fold Change in IFN-γ Expression of HBV-specific T Cells (HBV-specific T cells; Chronic Hepatitis B Donor 1): 2.0 Fold Change
- Fold Change in IFN-γ Expression of HBV-specific T Cells (HBV-specific T cells; Chronic Hepatitis B Donor 2): 2.0 Fold Change
- Fold Change in IFN-γ Expression of HBV-specific T Cells (HBV-specific T cells; Chronic Hepatitis B Donor 3): 1.5 Fold Change
- Fold Change in IFN-γ Expression of HBV-specific T Cells (HBV-specific T cells; Chronic Hepatitis B Donor 4): 3.7 Fold Change
- Fold Change in IFN-γ Expression of HBV-specific T Cells (HBV-specific T cells; Chronic Hepatitis B Donor 5): 1.5 Fold Change
- Fold Change in IFN-γ Expression of HBV-specific T Cells (HBV-specific T cells; Chronic Hepatitis B Donor 6): 2.7 Fold Change
- Fold Change in IFN-γ Expression of HBV-specific T Cells (HBV-specific T cells; Chronic Hepatitis B Donor 7): 1.3 Fold Change
- Fold Change in IFN-γ Expression of HBV-specific T Cells (HBV-specific T cells; Chronic Hepatitis B Donor 8): 2.2 Fold Change
- Fold Change in IFN-γ Expression of HBV-specific T Cells (HBV-specific T cells; Chronic Hepatitis B Donor 9): 1.5 Fold Change
- Fold Change in IFN-γ Expression of HBV-specific T Cells, Mean ± SD (HBV-specific T cells): 2.0 ± 0.8 Fold Change
- Tumor Volume (group mean) ([2]; 10 mg/kg × 28 days, oral gavage once daily, study day 2): 122 mm^3
- Tumor Volume (group mean) ([2]; 10 mg/kg × 28 days, oral gavage once daily, study day 5): 170 mm^3
- Tumor Volume (group mean) ([2]; 10 mg/kg × 28 days, oral gavage once daily, study day 9): 227 mm^3
- Tumor Volume (group mean) ([2]; 10 mg/kg × 28 days, oral gavage once daily, study day 12): 223 mm^3
- Tumor Volume (group mean) ([2]; 10 mg/kg × 28 days, oral gavage once daily, study day 16): 222 mm^3
- Tumor Volume (group mean) ([2]; 10 mg/kg × 28 days, oral gavage once daily, study day 19): 252 mm^3
- Tumor Volume (group mean) ([2]; 10 mg/kg × 28 days, oral gavage once daily, study day 23): 279 mm^3
- Tumor Volume (group mean) ([2]; 10 mg/kg × 28 days, oral gavage once daily, study day 26): 328 mm^3
- Tumor Volume (group mean) ([2]; 10 mg/kg × 28 days, oral gavage once daily, study day 28): 346 mm^3
- Tumor Volume (group mean) ([2]; 10 mg/kg × 28 days, oral gavage once daily, study day −1): 105 mm^3
- Tumor Volume (group mean) ([2]; 30 mg/kg × 7 days, oral gavage once daily, study day 2): 116 mm^3
- Tumor Volume (group mean) ([2]; 30 mg/kg × 7 days, oral gavage once daily, study day 5): 164 mm^3
- Tumor Volume (group mean) ([2]; 30 mg/kg × 7 days, oral gavage once daily, study day 9): 176 mm^3
- Tumor Volume (group mean) ([2]; 30 mg/kg × 7 days, oral gavage once daily, study day 12): 212 mm^3
- Tumor Volume (group mean) ([2]; 30 mg/kg × 7 days, oral gavage once daily, study day 16): 243 mm^3
- Tumor Volume (group mean) ([2]; 30 mg/kg × 7 days, oral gavage once daily, study day 19): 310 mm^3
- Tumor Volume (group mean) ([2]; 30 mg/kg × 7 days, oral gavage once daily, study day 23): 418 mm^3
- Tumor Volume (group mean) ([2]; 30 mg/kg × 7 days, oral gavage once daily, study day 26): 564 mm^3
- Tumor Volume (group mean) ([2]; 30 mg/kg × 7 days, oral gavage once daily, study day 28): 607 mm^3
- Tumor Volume (group mean) ([2]; 30 mg/kg × 7 days, oral gavage once daily, study day −1): 105 mm^3

Molecule: COc1cc(-c2nccc(-c3cccc(-c4ccc(CN5CC6(C5)CN(C(C)=O)C6)c(OC)n4)c3Cl)c2Cl)ccc1CN1CC2(C1)CN(C(C)=O)C2 [Compound 90, 1-(6-((6-(3-(2-(4-((6-acetyl-2,6-diazaspiro[3.3]heptan-2-yl)methyl)-3-methoxyphenyl)-3-chloropyridin-4-yl)-2-chlorophenyl)-2-methoxypyridin-3-yl)methyl)-2,6-diazaspiro[3.3]heptan-2-yl)ethan-1-one]
- pIC50 [1]: 9.15
- pEC50 (human PD-L1): 7.23
- Fold Change in IFN-γ Expression of HBV-specific T Cells (HBV-specific T cells; Chronic Hepatitis B Donor 1): 1.7 Fold Change
- Fold Change in IFN-γ Expression of HBV-specific T Cells (HBV-specific T cells; Chronic Hepatitis B Donor 2): 2.2 Fold Change
- Fold Change in IFN-γ Expression of HBV-specific T Cells (HBV-specific T cells; Chronic Hepatitis B Donor 3): 1.9 Fold Change
- Fold Change in IFN-γ Expression of HBV-specific T Cells (HBV-specific T cells; Chronic Hepatitis B Donor 4): 3.0 Fold Change
- Fold Change in IFN-γ Expression of HBV-specific T Cells (HBV-specific T cells; Chronic Hepatitis B Donor 5): 1.2 Fold Change
- Fold Change in IFN-γ Expression of HBV-specific T Cells (HBV-specific T cells; Chronic Hepatitis B Donor 6): 2.5 Fold Change
- Fold Change in IFN-γ Expression of HBV-specific T Cells (HBV-specific T cells; Chronic Hepatitis B Donor 7): 1.5 Fold Change
- Fold Change in IFN-γ Expression of HBV-specific T Cells (HBV-specific T cells; Chronic Hepatitis B Donor 8): 2.1 Fold Change
- Fold Change in IFN-γ Expression of HBV-specific T Cells (HBV-specific T cells; Chronic Hepatitis B Donor 9): 1.2 Fold Change
- Fold Change in IFN-γ Expression of HBV-specific T Cells, Mean ± SD (HBV-specific T cells): 1.9 ± 0.6 Fold Change

Molecule: COc1nc(-c2ccnc(-c3cccc(NC(=O)c4ccc(CNCCO)cn4)c3C)c2Cl)ccc1CNC[C@@H]1CCC(=O)N1 [Example 771, (S)—N-(3-(3′-chloro-6-methoxy-5-((((5-oxopyrrolidin-2-yl)methyl)amino)methyl)-[2,4′-bipyridin]-2′-yl)-2-methylphenyl)-5-(((2-hydroxyethyl)amino)methyl)picolinamide]
- pIC50 [1]: 10.52
- pEC50 (human PD-L1): 7.54

Molecule: COc1nc(-c2cccc(-c3nccc(-c4ccc(CN5CC[C@@H](O)C5)c(OC)n4)c3Cl)c2Cl)ccc1CN1CC[C@@H](O)C1 [Example 772, (R)-1-((3′-Chloro-2′-(2-chloro-3-(5-(((R)-3-hydroxypyrrolidin-1-yl)methyl)-6-methoxypyridin-2-yl)phenyl)-6-methoxy-[2,4′-bipyridin]-5-yl)methyl)pyrrolidin-3-ol]
- pIC50 [1]: 9.07
- pEC50 (human PD-L1): 7.94

Molecule: COc1nc(-c2cccc(-c3nccc(-c4ccc(CN5CC[C@H](O)C5)c(OC)n4)c3Cl)c2Cl)ccc1CN1CC[C@H](O)C1 [Example 773, (S)-1-((3′-Chloro-2′-(2-chloro-3-(5-(((S)-3-hydroxypyrrolidin-1-yl)methyl)-6-methoxypyridin-2-yl)phenyl)-6-methoxy-[2,4′-bipyridin]-5-yl)methyl)pyrrolidin-3-ol]
- pIC50 [1]: 8.99
- pEC50 (human PD-L1): 7.98

Molecule: COc1nc(-c2cccc(-c3nccc(-c4ccc(CNC5CCN(C(C)=O)CC5)c(OC)n4)c3Cl)c2Cl)ccc1CN1CCC(O)CC1 [Example 774, 1-(4-(((3′-Chloro-2′-(2-chloro-3-(5-((4-hydroxypiperidin-1-yl)methyl)-6-methoxypyridin-2-yl)phenyl)-6-methoxy-[2,4′-bipyridin]-5-yl)methyl)amino)piperidin-1-yl)ethan-1-one]
- pIC50 [1]: 8.84
- pEC50 (human PD-L1): 7.89

Molecule: atezolizumab
- Tumor Volume (group mean) ([2]; intraperitoneal 0.3 mg/kg thrice weekly, study days 1 to 15, study day 2): 122 mm^3
- Tumor Volume (group mean) ([2]; intraperitoneal 0.3 mg/kg thrice weekly, study days 1 to 15, study day 5): 162 mm^3
- Tumor Volume (group mean) ([2]; intraperitoneal 0.3 mg/kg thrice weekly, study days 1 to 15, study day 9): 156 mm^3
- Tumor Volume (group mean) ([2]; intraperitoneal 0.3 mg/kg thrice weekly, study days 1 to 15, study day 12): 192 mm^3
- Tumor Volume (group mean) ([2]; intraperitoneal 0.3 mg/kg thrice weekly, study days 1 to 15, study day 16): 242 mm^3
- Tumor Volume (group mean) ([2]; intraperitoneal 0.3 mg/kg thrice weekly, study days 1 to 15, study day 19): 243 mm^3
- Tumor Volume (group mean) ([2]; intraperitoneal 0.3 mg/kg thrice weekly, study days 1 to 15, study day 23): 341 mm^3
- Tumor Volume (group mean) ([2]; intraperitoneal 0.3 mg/kg thrice weekly, study days 1 to 15, study day 26): 429 mm^3
- Tumor Volume (group mean) ([2]; intraperitoneal 0.3 mg/kg thrice weekly, study days 1 to 15, study day 28): 472 mm^3
- Tumor Volume (group mean) ([2]; intraperitoneal 0.3 mg/kg thrice weekly, study days 1 to 15, study day −1): 105 mm^3
